The numbers were not newly measured in EP0315648B1 (THE UPJOHN COMPANY, priority 1986, dated 1988), which cites them from elsewhere.

The conditions of this series: Hildebrand solubility coefficient of the solvent (scale of Vaughn).

Turning to `CCCCCCCC/C=C\CCCCCCCCO` [oleyl alcohol], the HSC is 9.8. With `CC(O)CO` (centres unmarked) [propylene glycol], the HSC is on record as 14.
